Data: ChEMBL document CHEMBL4627315, “Promising antifungal agents: A minireview” (2020)
≈ marks a conversion by molar mass, not a printed value.

Legend:
Fusarium graminearum = assay: Antifungal activity against Fusarium graminearum; format: functional
Saccharomyces cerevisiae = assay: Antifungal activity against Saccharomyces cerevisiae; format: functional
Cryptococcus neoformans = assay: Antifungal activity against Cryptococcus neoformans; format: functional
Aspergillus niger [1] = assay: Potency index, ratio of Amphotericin B IZ to test compound IZ for Aspergillus niger assessed as zone of inhibition by serial dilution and disc diffusion method; format: functional
Candida albicans [2] = assay: Antifungal activity against Candida albicans assessed as zone of inhibition by serial dilution and disc diffusion method; format: functional
Aspergillus flavus [3] = assay: Antifungal activity against Aspergillus flavus assessed as zone of inhibition by serial dilution and disc diffusion method; format: functional
Rhizopus [4] = assay: Potency index, ratio of Amphotericin B IZ to test compound IZ for Rhizopus assessed as zone of inhibition by serial dilution and disc diffusion method; format: functional
Candida albicans [5] = assay: Potency index, ratio of Amphotericin B IZ to test compound IZ for Candida albicans assessed as zone of inhibition by serial dilution and disc diffusion method; format: functional
Aspergillus flavus [6] = assay: Potency index, ratio of Amphotericin B IZ to test compound IZ for Aspergillus flavus assessed as zone of inhibition by serial dilution and disc diffusion method; format: functional
Rhizopus [7] = assay: Antifungal activity against Rhizopus assessed as zone of inhibition by serial dilution and disc diffusion method; format: functional
Aspergillus niger [8] = assay: Antifungal activity against Aspergillus niger assessed as zone of inhibition by serial dilution and disc diffusion method; format: functional
Candida albicans [9] = assay: Antifungal activity against Candida albicans assessed as zone of inhibition at 25 to 100 ug/ml; format: functional
Cryptococcus gattii = assay: Antifungal activity against Cryptococcus gattii; format: functional, Cryptococcus gattii VGI

| SMILES | Ratio (Aspergillus niger [1]) | inhibition zone (IZ) (Candida albicans [2]) | inhibition zone (IZ) (Aspergillus flavus [3]) | Ratio (Rhizopus [4]) | Ratio (Candida albicans [5]) | Ratio (Aspergillus flavus [6]) | inhibition zone (IZ) (Rhizopus [7]) | inhibition zone (IZ) (Aspergillus niger [8]) | further results |
| --- | --- | --- | --- | --- | --- | --- | --- | --- | --- |
| CCCCCCCCO[C@H]1[C@H](N)[C@@H](O)[C@@H](O[C@@H]2[C@@H](O)[C@H](O[C@H]3O[C@H](CN)[C@@H](O)[C@H](O)[C@H]3N)[C@@H](N)C[C@H]2N)O[C@@H]1C | – | – | – | – | – | – | – | – | MIC (Fusarium graminearum): 7.8 µg/mL (≈ 13.5 µM); MIC (Saccharomyces cerevisiae): 4 to 31.3 µg/mL (≈ 6.9 to 54 µM); MIC (Cryptococcus neoformans): 3.9 to 7.8 µg/mL (≈ 6.73 to 13.5 µM) |
| Cc1nc(-c2ccc(F)c(Br)c2)n(CCN2CCNCC2)c1C | 1.5 - 2 | 18 - 21 mm | 18 - 21 mm | 1.5 - 2 | 1.5 - 2 | 1.5 - 2 | 18 - 21 mm | 18 - 21 mm | – |
| Cc1nc(-c2ccc(Cl)cc2)n(CCN2CCNCC2)c1C | 1.5 - 2 | 16 - 20 mm | 16 - 20 mm | 1.5 - 2 | 1.5 - 2 | 1.5 - 2 | 16 - 20 mm | 16 - 20 mm | – |
| Cc1nc(-c2cccs2)n(CCN2CCNCC2)c1C | – | 16 - 200 mm | 16 - 200 mm | – | – | – | 16 - 200 mm | 16 - 200 mm | – |
| Cc1nc(-c2ccc(F)cc2)n(CCN2CCNCC2)c1C | 1.5 - 2 | 16 - 22 mm | 16 - 22 mm | 1.5 - 2 | 1.5 - 2 | 1.5 - 2 | 16 - 22 mm | 16 - 22 mm | – |
| C[C@@H]1[C@H](O)[C@@H](C)/C=C/C=C/C=C/C=C/C=C/C=C/C=C/[C@H](O[C@@H]2O[C@H](C)[C@@H](O)[C@H](N)[C@@H]2O)C[C@@H]2O[C@](O)(C[C@@H](O)C[C@@H](O)[C@H](O)CC[C@@H](O)C[C@@H](O)CC(=O)O[C@H]1C)C[C@H](O)[C@H]2C(=O)O [AMPHOTERICIN B] | – | 11 - 14 mm | 11 - 14 mm | – | – | – | 11 - 14 mm | 11 - 14 mm | – |
| OC(Cn1cncn1)(Cn1cncn1)c1ccc(F)cc1F [FLUCONAZOLE] | – | – | – | – | – | – | – | – | inhibition zone (IZ) (Candida albicans [9]): 2.6 - 2.8 cm |
| C/C(=C(/OCCOc1ccc(Cl)cc1)c1ccc(Cl)cc1Cl)n1ccnc1 [OMOCONAZOLE] | – | – | – | – | – | – | – | – | MIC (Cryptococcus gattii): ≤ 4 µg/mL |
| Clc1ccc(CO/N=C(\Cn2ccnc2)c2ccc(Cl)cc2Cl)c(Cl)c1 [OXICONAZOLE] | – | – | – | – | – | – | – | – | MIC (Cryptococcus gattii): ≤ 4 µg/mL |
